In patent US4469795A, “Radioassay for monosialoglycosphingolipid (GM1) ganglioside concentration” (priority 1981, dated 1984):

Test system: iodotoxin binding to liver membranes
Set-up: species or system rat

| Substance | inhibition of iodotoxin binding to liver membranes by the unlabelled enterotoxin | reversal of inhibition of iodotoxin binding to liver membranes | inhibition of liver membrane toxin binding | time until binding of iodotoxin to GM1 ganglioside is complete |
| --- | --- | --- | --- | --- |
| cholera toxin | did not occur | greater than 92% | – | – |
| monosialoglycosphingolipid GM1 ganglioside | – | – | greater than 94% | thirty |
